Data reported in the supplement of paper PMC4862054.

What was measured:
CAL-120 [1] = assay: normalised viability (% of control), CellTiter-Blue; higher = more viable cells (about 100 = DMSO control); details: 100 nM; incubation time: 72 h
Protocol: (§1)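 DSRT, CellTiter-Blue viability, 72 h incubation. Signal is normalised to DMSO and benzethonium chloride controls. Value is the normalised response at dose 3.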

CAL-148 [2] = assay: as above; details: 10 nM; incubation time: 72 h
Protocol: as §1

HCC1143 [3] = assay: as above; details: 100 nM; incubation time: 72 h
Protocol: as §1

HCC1599 [4] = assay: as above; details: 100 nM; incubation time: 72 h
Protocol: as §1

HCC1937 [5] = assay: as above; details: 100 nM; incubation time: 72 h
Protocol: as §1

MDA-MB-231 [6] = assay: as above; details: 100 nM; incubation time: 72 h
Protocol: as §1

MDA-MB-453 [7] = assay: as above; details: 10 nM; incubation time: 72 h
Protocol: as §1

MDA-MB-468 [8] = assay: as above; details: 100 nM; incubation time: 72 h
Protocol: as §1

CAL-148 [9] = assay: as above; details: 1000 nM; incubation time: 72 h
Protocol: (§2)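 DSRT, CellTiter-Blue viability, 72 h incubation. Signal is normalised to DMSO and benzethonium chloride controls. Value is the normalised response at dose 7.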

CAL-51 [10] = assay: as above; details: 1000 nM; incubation time: 72 h
Protocol: as §2

CAL-85-1 = assay: as above; details: 1000 nM; incubation time: 72 h
Protocol: as §2

DU-4475 [11] = assay: as above; details: 1000 nM; incubation time: 72 h
Protocol: as §2

HDQ-P1 [12] = assay: as above; details: 1000 nM; incubation time: 72 h
Protocol: as §2

MDA-MB-453 [13] = assay: as above; details: 1000 nM; incubation time: 72 h
Protocol: as §2

BT-549 = assay: normalised viability (% of control), CellTiter-Blue; higher = more viable cells (100 = DMSO, 0 = benzethonium chloride kill control); details: 1 nM; incubation time: 72 h
Method in brief: (§3)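 After 72 h on compound-loaded 384-well plates, breast cancer cell lines received 2.5 µl CellTiter-Blue reagent for 2 h at 37 °C. Fluorescence at 560/590 nm was scaled per plate so that vehicle was 100 and a positive kill control was 0. The value stands for normalised viability at a single listed concentration of the series.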

CAL-120 [14] = assay: as above; details: 1 nM; incubation time: 72 h
Method in brief: as §3

CAL-148 [15] = assay: as above; details: 1 nM; incubation time: 72 h
Method in brief: as §3

CAL-51 [16] = assay: as above; details: 1 nM; incubation time: 72 h
Method in brief: as §3

DU-4475 [17] = assay: as above; details: 1 nM; incubation time: 72 h
Method in brief: as §3

HCC1143 [18] = assay: as above; details: 1 nM; incubation time: 72 h
Method in brief: as §3

HCC1599 [19] = assay: as above; details: 1 nM; incubation time: 72 h
Method in brief: as §3

HCC1937 [20] = assay: as above; details: 1 nM; incubation time: 72 h
Method in brief: as §3

HDQ-P1 [21] = assay: as above; details: 1 nM; incubation time: 72 h
Method in brief: as §3

Hs578T = assay: as above; details: 1 nM; incubation time: 72 h
Method in brief: as §3

MDA-MB-231 [22] = assay: as above; details: 1 nM; incubation time: 72 h
Method in brief: as §3

MDA-MB-436 = assay: as above; details: 1 nM; incubation time: 72 h
Method in brief: as §3

MDA-MB-453 [23] = assay: as above; details: 1 nM; incubation time: 72 h
Method in brief: as §3

MDA-MB-468 [24] = assay: as above; details: 1 nM; incubation time: 72 h
Method in brief: as §3

MFM-223 = assay: as above; details: 1 nM; incubation time: 72 h
Method in brief: as §3

SK-BR-3 = assay: as above; details: 1 nM; incubation time: 72 h
Method in brief: as §3

Row | Structure (SMILES) | normalised viability (CAL-120 [1]) | normalised viability (CAL-148 [2]) | normalised viability (HCC1143 [3]) | normalised viability (HCC1599 [4]) | normalised viability (HCC1937 [5]) | normalised viability (MDA-MB-231 [6]) | normalised viability (MDA-MB-453 [7]) | normalised viability (MDA-MB-468 [8]) | normalised viability (CAL-148 [9]) | normalised viability (CAL-51 [10]) | normalised viability (CAL-85-1) | normalised viability (DU-4475 [11]) | normalised viability (HDQ-P1 [12]) | normalised viability (MDA-MB-453 [13]) | normalised viability (BT-549) | normalised viability (CAL-120 [14]) | normalised viability (CAL-148 [15]) | normalised viability (CAL-51 [16]) | normalised viability (DU-4475 [17]) | normalised viability (HCC1143 [18]) | normalised viability (HCC1599 [19]) | normalised viability (HCC1937 [20]) | normalised viability (HDQ-P1 [21]) | normalised viability (Hs578T) | normalised viability (MDA-MB-231 [22]) | normalised viability (MDA-MB-436) | normalised viability (MDA-MB-453 [23]) | normalised viability (MDA-MB-468 [24]) | normalised viability (MFM-223) | normalised viability (SK-BR-3)
1 | O=C(O)C(=O)O.[NH-][C@@H]1CCCC[C@H]1[NH-].[Pt+2] [Oxaliplatin] | 91% | 127% | 98.2% | 96.1% | 89.1% | 89% | 114% | 107% | 125% | 91.1% | 93.2% | 104% | 97.9% | 109% | 89% | 84.8% | 109% | 93.3% | 99.8% | 93% | 93% | 84% | 130% | 96.7% | 101% | 106% | 100% | 109% | 97.1% | 91%
2 | Nc1nc2[nH]cc(CCc3ccc(C(=O)N[C@@H](CCC(=O)O)C(=O)O)cc3)c2c(=O)[nH]1 [Pemetrexed] | 86% | 101% | 91.6% | 88.9% | 92.8% | 94.9% | 118% | 99% | 115% | 102% | 72.3% | 93.9% | 94.8% | 104% | 101% | 87% | 113% | 109% | 99.3% | 92.5% | 92.6% | 84.5% | 107% | 114% | 100% | 104% | 101% | 96.9% | 93.1% | 98.9%
3 | COc1cc([C@@H]2c3cc4c(cc3[C@@H](O[C@@H]3O[C@@H]5CO[C@@H](c6cccs6)O[C@H]5[C@H](O)[C@H]3O)[C@H]3COC(=O)[C@H]23)OCO4)cc(OC)c1O [Teniposide] | 75.2% | 95.5% | 79.4% | 87.8% | 61.4% | 81.8% | 111% | 79.8% | 30.3% | 24.4% | 64.6% | 5.16% | 82.3% | 73.1% | 85% | 98.2% | 103% | 105% | 94.6% | 98.1% | 98.3% | 94% | 104% | 127% | 132% | 110% | 113% | 98.9% | 92.1% | 97.2%
4 | COc1cc2nccc(Oc3ccc(NC(=O)Nc4cc(C)on4)c(Cl)c3)c2cc1OC [Tivozanib] | 106% | 95.6% | 113% | 119% | 88.2% | 91.1% | 94.5% | 96.8% | 98.7% | 90.3% | 98.3% | 124% | 72.5% | 91.7% | 81.1% | 106% | 103% | 101% | 102% | 103% | 115% | 92.5% | 97.6% | 103% | 88% | 102% | 97.4% | 98.3% | 100% | 102%
